{"source": "patent US10646496B2", "about": "“Joint application of statin and adrenocortical hormone for treating chronic subdural hematoma” (priority 2016, dated 2020)", "key": {"[1]": {"test_system": "subcutaneous hematoma"}, "[2]": {"test_system": "VEGF, TGF-β, MMP-9 and Ang-1/2", "experiment": "Rat subdural hematoma model: factor expression in hematoma capsule/cavity (real-time PCR, ELISA)", "type": "in vivo", "source_text": "In FIG. 1 to FIG. 9, “#” denotes a statistically significant difference in the small-dose group and the large-dose group as compared with the control group; and “*” denotes a statistically significant difference between the small-dose group and the large-dose group."}, "[3]": {"test_system": "chronic subdural hematoma", "conditions": "for Hematoma amount in the fourth week, average value: treatment for one month, conservatively successful patients"}, "[4]": {"test_system": "VEGF, TGF-β, MMP-9 and Ang-1/2", "conditions": "small dose of atorvastatin, recent animal experiments; cited from earlier work"}, "[5]": {"conditions": "large-dose 5 mg/kg/day, 28 rats"}, "[6]": {"conditions": "small-dose 3 mg/kg/day, 30 rats"}, "[7]": {"conditions": "large-dose group 8 mg/kg/day oral, 2 days"}, "[8]": {"conditions": "large-dose group 8 mg/kg/day, 7 days after the operation"}, "[9]": {"conditions": "small-dose group 3 mg/kg/day oral, 2 days"}, "[10]": {"conditions": "small-dose group 3 mg/kg/day, 7 days after the operation, vs control and large-dose group"}}, "note": "Where “and” joins values, the source holds several entries; their conditions need not be identical. Equal entries are not always repeated. Where two headings read alike, the source gives them in different places."}
{"smiles": "CC(C)c1c(C(=O)Nc2ccccc2)c(-c2ccccc2)c(-c2ccc(F)cc2)n1CC[C@@H](O)C[C@@H](O)CC(=O)O", "note": "[atorvastatin]", "values": [{"measurement": "Injury infection", "setting": "[1]; [5]", "result": 4}, {"measurement": "Rats died in the treatment", "setting": "[1]; [5]", "result": 7}, {"measurement": "death rate", "setting": "[1]; large-dose group compared with small-dose atorvastatin group", "result": "significantly improved"}, {"measurement": "hormone-caused complications", "setting": "[1]; rat, in vivo", "result": "significantly increased"}, {"measurement": "Poor condition", "setting": "[1]; rat, in vivo, 3 mg/kg/day", "result": 3}, {"measurement": "Poor condition", "setting": "[1]; rat, in vivo, 5 mg/kg/day", "result": 6}, {"measurement": "Injury infection", "setting": "[1]; [6]", "result": 1}, {"measurement": "Rats died in the treatment", "setting": "[1]; [6]", "result": 2}, {"measurement": "expression of MMP-9", "setting": "[2]; [7]", "result": "significantly higher"}, {"measurement": "expression of TGFβ", "setting": "[2]; [7]", "result": "significantly higher"}, {"measurement": "expression of VEGF", "setting": "[2]; [7]", "result": "significantly higher"}, {"measurement": "expression of Ang2", "setting": "[2]; [8]", "result": "high expressions"}, {"measurement": "expression of MMP-9", "setting": "[2]; [8]", "result": "high expressions"}, {"measurement": "expression of TGF-β", "setting": "[2]; [8]", "result": "high expressions"}, {"measurement": "expression of VEGF", "setting": "[2]; [8]", "result": "high expressions"}, {"measurement": "mRNA expression of hematoma capsule Ang1", "setting": "[2]; [9]", "result": "significantly higher"}, {"measurement": "mRNA expression of hematoma capsule VEGF", "setting": "[2]; [9]", "result": "significantly higher"}, {"measurement": "Ang1", "setting": "[2]; [10]", "result": "significantly higher"}, {"measurement": "expression level of MMP-9", "setting": "[2]; [10]", "result": "significantly lower"}, {"measurement": "expression level of VEGF", "setting": "[2]; [10]", "result": "significantly lower"}, {"measurement": "Hematoma amount in the fourth week, average value", "setting": "[3]; atorvastatin alone", "result": "28.29 ± 29.47 mL and 28.29 mL"}, {"measurement": "local TNF-α and IL-6 gene and protein levels in the hematoma capsule", "setting": "[4]", "result": "significantly reduce"}]}
{"smiles": "C[C@@H]1C[C@H]2[C@@H]3CCC4=CC(=O)C=C[C@]4(C)[C@@]3(F)[C@@H](O)C[C@]2(C)[C@@]1(O)C(=O)CO", "note": "[dexamethasone]", "values": [{"measurement": "Reduced hematoma amount in the fourth week, average value", "setting": "[3]; small dose dexamethasone alone", "result": 24.71, "unit": "mL"}, {"measurement": "patients with no therapeutic effect, transferred to surgical treatment", "setting": "[3]; small dose dexamethasone alone, among the 15 patients", "result": 5, "unit": "patients"}, {"measurement": "average hematoma absorption rate", "setting": "[3]; small dose dexamethasone alone, fourth week / one month after administration", "result": 35, "unit": "%"}, {"measurement": "Hematoma amount in the fourth week", "setting": "[3]; small dose dexamethasone alone, oral, 0.75 mg 3x/day wk 1, 2x/day wk 2-3, 1x/day wk 4, individual patients (15)", "result": "40.95 ml and 80.00 ml (2×) and 36.30 ml and 32.73 ml and 96.53 ml and 39.88 ml and 30.25 ml and 35.00 ml and 37.00 ml"}, {"measurement": "Hematoma amount in the fourth week, average value", "setting": "[3]; small dose dexamethasone alone", "result": "50.86 ± 24.52 mL and 50.86 mL"}, {"measurement": "Reduced hematoma amount in the fourth week", "setting": "[3]; small dose dexamethasone alone, individual patients (15)", "result": "20.93 mL and 25.00 mL and 39.64 mL and 23.90 mL and 8.13 mL and 38.43 mL and 24.08 mL and 36.40 mL and 13.60 mL and 17.00 mL"}]}
